Assays:
[1] = test system: Escherichia coli; assay: The logarithm of the inverse of the concentration (log 1/C) for the inhibition of Escherichia coli MB 1428 growth by 80%; format: functional
[2] = test system: Escherichia coli; assay: The logarithm of the inverse of the concentration (log 1/C) for the inhibition of Escherichia coli 1515 (Escherichia coli) growth by 80%; format: functional
[3] = target: T1, Dihydrofolate reductase (Escherichia coli) (UniProt P0ABQ4)
T1 sequence (whole entry): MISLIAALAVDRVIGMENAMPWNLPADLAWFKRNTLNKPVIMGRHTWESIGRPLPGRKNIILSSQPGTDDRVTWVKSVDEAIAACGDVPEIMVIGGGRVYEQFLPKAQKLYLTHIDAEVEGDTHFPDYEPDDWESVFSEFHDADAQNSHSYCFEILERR
Description: Apparent inhibitory (log 1/Ki) activity against Escherichia coli dihydrofolate reductase

| Log 1/Ki app [3] | SMILES | Log 1/C [1] | Log 1/C [2] |
| --- | --- | --- | --- |
| 9.25 | COCCOc1ccc(Cc2cnc(N)nc2N)cc1OC | 4.3 | 5.82 |
| 6.2 | Nc1ncc(Cc2ccc([N+](=O)[O-])cc2)c(N)n1 | – | – |
| 6.92 | CS(=O)(=O)Oc1cccc(Cc2cnc(N)nc2N)c1 | – | – |
| 10 | COc1ccc(Cc2cnc(N)nc2N)cc1OCc1ccccc1 | 5.02 | 4.96 |
| 8.74 | COCCOc1cc(Cc2cnc(N)nc2N)ccc1OC | – | – |
| 9.01 | CCCCOc1ccc(Cc2cnc(N)nc2N)cc1OC | 4.98 | 5.93 |
| 8.77 | Nc1ncc(Cc2cc(OCc3ccccc3)cc(OCc3ccccc3)c2)c(N)n1 | – | – |
| 8.96 | CCCCOc1cc(Cc2cnc(N)nc2N)cc(Br)c1OC | 6.24 | 5.02 |
| 8.96 | COc1ccc(Cc2cnc(N)nc2N)cc1OS(C)(=O)=O | 4.13 | 6.42 |
| 9.43 | COc1cc(Cc2cnc(N)nc2N)ccc1OCc1ccccc1 | 5.02 | 4.96 |
| 8.8 | CCCOc1cc(Cc2cnc(N)nc2N)cc(OCCC)c1 | – | – |
| 9.11 | CCOc1cc(Cc2cnc(N)nc2N)cc(OCC)c1 | 4.77 | 6.54 |
| 6.57 | Nc1ncc(Cc2ccc(OC(F)(F)F)cc2)c(N)n1 | – | – |
| 8.49 | CCCOc1cc(Cc2cnc(N)nc2N)cc(OCC)c1 | – | – |
| 8.15 | CS(=O)(=O)Oc1ccc(Cc2cnc(N)nc2N)cc1 | – | – |
| 8.05 | Cc1cc(C)cc(Cc2cnc(N)nc2N)c1 | – | – |
| 9.05 | COc1cc(Cc2cnc(N)nc2N)ccc1O | 3.51 | 6.45 |
| 7.69 | COc1ccc(Cc2cnc(N)nc2N)cc1C(F)(F)F | – | – |
| 6.97 | CC(=O)Nc1ccc(Cc2cnc(N)nc2N)cc1[N+](=O)[O-] | – | – |
| 8.96 | CCCOc1cc(Cc2cnc(N)nc2N)cc(Br)c1OC | 6.07 | 4.91 |

| SMILES | Log 1/Ki app [3] | Log 1/C [1] | Log 1/C [2] |
| --- | --- | --- | --- |
| Nc1ncc(Cc2ccc(OCc3ccccc3)cc2)c(N)n1 | 8.7 | – | – |

Source: ChEMBL document CHEMBL1124032, “Quantitative structure-activity relationships for the inhibition of Escherichia coli dihydrofolate reductase by 5-(substituted benzyl)-2,4-diaminopyrimidines” (1988)
